Assay results as given in patent publication US9127021B2, “Hepatitis C virus inhibitors” (priority 2010, dated 2015).
pEC50: −log10 of the molar value. Where two headings read alike, the source gives them in different places.

What was measured:
[1] = system: HCV 1a genotype replicon; test: HCV genotype 1a replicon assay (qRT-PCR or luciferase); type: cell-based; conditions: Hepatitis C virus
[2] = system: HCV 1b genotype replicon; test: HCV genotype 1b replicon assay (qRT-PCR or luciferase); type: cell-based; conditions: Hepatitis C virus
Excerpt: HCV replicon cell lines (kindly provided by R. Bartenschlager) isolated from colonies as described by Lohman et al. (Lohman et al. (1999) Science 285: 110-113, expressly incorporated by reference in its entirety) and used for all experiments. The HCV replicon has the nucleic acid sequence set forth in EMBL Accession No.: AJ242651, the coding sequence of which is from nucleotides 1801 to 8406.
The coding sequence of the published HCV replicon was synthesized and subsequently assembled in a modified plasmid pBR322 (Promega, Madison, Wis.) using standard molecular biology techniques. […]
EC50 values of single agent compounds were determined by HCV RNA detection using quantitative RT-PCR, according to the manufacturer's instructions, with a TAQMAN® One-Step RT-PCR Master Mix Reagents Kit (Cat#AB 4309169, Applied Biosystems) on an ABI Model 7500 thermocycler. EC50 values of combinations are similarly determined by HCV RNA detection using quantitative RT-PCR. The TAQMAN primers to use for detecting and quantifying HCV RNA obtained from Integrated DNA Technologies. HCV RNA is normalized to GAPDH RNA levels in drug-treated cells, which is detected and quantified using the Human GAPDH Endogenous Control Mix (Applied Biosystems, AB 4310884E). […] Chemical agent cytotoxicity is evaluated using an MTS assay according to the manufacturer's directions (Promega). […]

| SMILES | pEC50 ([1]; read-out: 1a EC50) | pEC50 ([1]; read-out: Range (EC50 range against HCV 1a)) | pEC50 ([2]; read-out: 1b EC50) | pEC50 ([2]; read-out: Range (EC50 range against HCV 1b)) |
| --- | --- | --- | --- | --- |
| COC(=O)N[C@H](C(=O)N1CCC[C@H]1c1nc(-c2ccc(-c3ccc4c(c3)COCCCCO[C@H](C)[C@H](NC(=O)OC)C(=O)N3CCC[C@H]3c3nc-4c[nH]3)cc2)c[nH]1)C(C)C [Compound 346] | 8.62 | < 9.00 |  |  |
| COC(=O)N[C@H]1CCCCOCc2cc(-c3ccc4cc(-c5c[nH]c([C@@H]6CCCN6C(=O)[C@@H](NC(=O)OC)C(C)C)n5)ccc4c3)ccc2NC(=O)[C@@H]2CCCN2C1=O [Compound 350] |  |  | 10.30 | > 10.00 |
